Assays:
h-TGR5 = target: T1, h-TGR5 (Homo sapiens, UniProt Q8TDU6); experiment: TGR5 cAMP Assay using Cisbio cAMP Dynamic 2 htrf assay kit; format: cell-based; conditions: hTGR5CRE-luc HEK 293 cells
T1 sequence (Q8TDU6 1-330): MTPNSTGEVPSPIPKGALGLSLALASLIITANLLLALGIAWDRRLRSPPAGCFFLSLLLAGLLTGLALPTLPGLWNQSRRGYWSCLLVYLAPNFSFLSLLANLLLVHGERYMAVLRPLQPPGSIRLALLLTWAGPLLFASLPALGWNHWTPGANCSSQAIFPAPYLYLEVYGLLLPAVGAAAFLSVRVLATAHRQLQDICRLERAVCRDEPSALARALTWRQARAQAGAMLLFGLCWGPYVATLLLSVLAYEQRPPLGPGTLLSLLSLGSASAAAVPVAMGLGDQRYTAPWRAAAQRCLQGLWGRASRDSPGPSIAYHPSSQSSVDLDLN
Protocol: Compounds were diluted in DPBS with 5% DMSO (8-point serial dilution by half logs) in a 96-well plate and 1 μL was transferred to a 384-well assay plate in quadruplicate. The d2-cAMP and anti-cAMP Ab-cryptate stock solution were prepared as per the instructions in the Cisbio™ (Bedford, Mass.) kit. Cells (hTGR5CRE-luc HEK 293 and mTGR5CRE-luc HEK 293) were harvested using cell dissociation buffer and resuspended in DPBS. Cells were adjusted to 0.44×10^6 cells/ml followed by addition of IBMX to a final concentration of 0.5 mM. The cells were then mixed with d2-cAMP solution (7.1 mL cells+100 ul d2-cAMP) and 4000 cells (9 μL) were transferred to each well of the 384-well assay plate. Cells without d2-cAMP were added to eight wells as a negative control. The plate was covered and incubated at room temp for 30 min. Then 10 μL of Ab-cryptate solution was added to each well of the assay plate and incubated for 1 hr. The plate was read on an EnVision™ plate reader (Perkin-Elmer, Waltham, Mass.) and the DeltaF value was calculated as per the instructions in the Cisbio™ kit.
(§1) In the following tables, ECso values determined according to the TGR5 cAMP Assay are noted (cAMP); EC50 values determined according to the TGR5/CRE-Luciferiase Assay are noted (CRE-Luc).

human TGR5 (h-TGR5) = target: T2, human TGR5 (h-TGR5) (Homo sapiens, UniProt Q8TDU6); experiment: TGR5/CRE-Luciferase Assay; format: cell-based; conditions: HEK 293 hTGR5/CRE-Luc cells, 6 hours incubation, read-out: CRE-Luc Agonist (EC50)
T2 sequence (Q8TDU6 1-330): T1 sequence (Q8TDU6 1-330)
Protocol: HEK 293 cells stably expressing human TGR5 (h-TGR5) or mouse TGR5 (m-TGR5) were generated from HEK 293 CRE-Luciferase cells. The day before the assay, HEK 293 hTGR5/CRE-Luc cells were plated in DMEM in a 384 well assay plate at a density of 25 k cells/45 μL per well and grown for 18-20 hours. Compounds were serially diluted in DMEM containing 5% DMSO and 5 µL of compound or media alone was transferred to each well and plates were incubated for 6 hours. Following incubation, 30 μL of lysis/luciferase buffer was added to each well. The luciferase activity was then measured on the EnVision™ plate reader and the dose response data was analyzed using ActivityBase.
as §1

Structure (SMILES) | EC50 (h-TGR5) [nM] | EC50 (human TGR5 (h-TGR5)) [nM]
COc1cc(C(C)(C)c2cnc(SCc3c(F)cc(S(=O)(=O)N4CCC([N+](C)(C)C)CC4)cc3Cl)n2-c2ccc(F)cc2)ccc1F [Compound 11o, 1-{[3-chloro-5-fluoro-4-({[5-{1-[4-fluoro-3-(methyloxy)phenyl]-1-methylethyl}-1-(4-fluorophenyl)-1H-imidazol-2-yl]thio}methyl)phenyl]sulfonyl}-N,N,N-trimethylpiperidin-4-aminium] | < 100 | < 100
COc1cc(C(C)(C)c2cnc(SCc3c(F)cc(S(=O)(=O)N4CCC[C@@H]([N+](C)(C)C)C4)cc3Cl)n2-c2ccc(F)cc2)ccc1F [Compound 11p, (3R)-1-{[3-chloro-5-fluoro-4-({[5-{1-[4-fluoro-3-(methyloxy)phenyl]-1-methylethyl}-1-(4-fluorophenyl)-1H-imidazol-2-yl]thio}methyl)phenyl]sulfonyl}-N,N,N-trimethylpiperidin-3-aminium] | < 100 | < 100
CC[N+](C)(C)C1CCN(S(=O)(=O)c2cc(F)c(CSc3ncc(C(C)(C)c4ccc(F)c(OC)c4)n3-c3ccc(F)cc3)c(Cl)c2)CC1 [Compound 11q, 1-{[3-chloro-5-fluoro-4-({[5-{1-[4-fluoro-3-(methyloxy)phenyl]-1-methylethyl}-1-(4-fluorophenyl)-1H-imidazol-2-yl]thio}methyl)phenyl]sulfonyl}-N-ethyl-N,N-dimethylpiperidin-4-aminium] | < 100 | < 100
COc1cc(C(C)(C)c2cnc(SCc3c(F)cc(S(=O)(=O)N4CC(C[N+](C)(C)C)C4)cc3Cl)n2-c2ccc(F)cc2)ccc1Cl [Compound 11r, (1-{[3-chloro-4-({[5-{1-[4-chloro-3-(methyloxy)phenyl]-1-methylethyl}-1-(4-fluorophenyl)-1H-imidazol-2-yl]thio}methyl)-5-fluorophenyl]sulfonyl}azetidin-3-yl)-N,N,N-trimethylmethanaminium] | < 100 | < 100
COc1cc(C(C)(C)c2cnc(SCc3c(F)cc(S(=O)(=O)NCC4CC[N+](C)(C)CC4)cc3Cl)n2-c2ccc(F)cc2)ccc1F [Compound 11s, 4-[({[3-chloro-5-fluoro-4-({[5-{1-[4-fluoro-3-(methyloxy)phenyl]-1-methylethyl}-1-(4-fluorophenyl)-1H-imidazol-2-yl]thio}methyl)phenyl]sulfonyl}amino)methyl]-1,1-dimethylpiperidinium] | < 100 | < 100
COc1cc(C(C)(C)c2cnc(SCc3c(F)cc(S(=O)(=O)Nc4cccc[n+]4C)cc3Cl)n2-c2ccc(F)cc2)ccc1F [Compound 11t, 2-({[3-chloro-5-fluoro-4-({[5-{1-[4-fluoro-3-(methyloxy)phenyl]-1-methylethyl}-1-(4-fluorophenyl)-1H-imidazol-2-yl]thio}methyl)phenyl]sulfonyl}amino)-1-methylpyridinium] | < 100 | < 100
COc1cc(C(C)(C)c2cnc(SCc3c(F)cc(S(=O)(=O)N4CCC[C@@H](C[N+](C)(C)C)C4)cc3Cl)n2-c2ccc(F)cc2)ccc1F [Compound 11u, [(3S)-1-{[3-chloro-5-fluoro-4-({[5-{1-[4-fluoro-3-(methyloxy)phenyl]-1-methylethyl}-1-(4-fluorophenyl)-1H-imidazol-2-yl]thio}methyl)phenyl]sulfonyl}piperidin-3-yl]-N,N,N-trimethylmethanaminium] | < 100 | < 100
COc1cc(C(C)(C)c2cnc(SCc3c(F)cc(S(=O)(=O)N4CC[C@@H](C[N+](C)(C)C)C4)cc3Cl)n2-c2ccc(F)cc2)ccc1F [Compound 11v, [(3S)-1-{[3-chloro-5-fluoro-4-({[5-(1-[4-fluoro-3-(methyloxy)phenyl]-1-methylethyl}-1-(4-fluorophenyl)-1H-imidazol-2-yl]thio}methyl)phenyl]sulfonyl}pyrrolidin-3-yl]-N,N,N-trimethylmethanaminium] | < 100 | < 100
COc1cc(C(C)(C)c2cnc(SCc3c(F)cc(S(=O)(=O)N4CCC[C@H](C[N+](C)(C)C)C4)cc3Cl)n2-c2ccc(F)cc2)ccc1F [Compound 11w, [(3R)-1-{[3-chloro-5-fluoro-4-({[5-{1-[4-fluoro-3-(methyloxy)phenyl]-1-methylethyl}-1-(4-fluorophenyl)-1H-imidazol-2-yl]thio}methyl)phenyl]sulfonyl}piperidin-3-yl]-N,N,N-trimethylmethanaminium] | < 100 | < 100

Second part, the compound after the results:

EC50 (h-TGR5) [nM] | EC50 (human TGR5 (h-TGR5)) [nM] | Structure (SMILES)
< 100 | < 100 | COc1cc(C(C)(C)c2cnc(SCc3c(F)cc(S(=O)(=O)N4CCC(C[N+](C)(C)C)(C(=O)O)CC4)cc3F)n2-c2ccc(F)cc2)ccc1Cl [Compound 11x, (4-carboxy-1-{[4-({[5-{1-[4-chloro-3-(methyloxy)phenyl]-1-methylethyl}-1-(4-fluorophenyl)-1H-imidazol-2-yl]thio}methyl)-3,5-difluorophenyl]sulfonyl}piperidin-4-yl)-N,N,N-trimethylmethanaminium]
< 100 | < 100 | COc1cc(C(C)(C)c2cnc(SCc3c(F)cc(S(=O)(=O)N(C)CCC[N+](C)(C)C)cc3F)n2-c2ccc(F)cc2)ccc1Cl [Compound 12a, 3-(4-((5-(2-(4-chloro-3-methoxyphenyl)propan-2-yl)-1-(4-fluorophenyl)-1H-imidazol-2-ylthio)methyl)-3,5-difluoro-N-methylphenylsulfonamido)-N,N,N-trimethylpropan-1-aminium 2,2,2-trifluoroacetate]
< 100 | < 100 | COc1cc(C(C)(C)c2cnc(SCc3c(F)cc(S(=O)(=O)N(C)CCC[N+](C)(C)C)cc3Cl)n2-c2ccc(F)cc2)ccc1Cl [Compound 12c, 3-(3-chloro-4-((5-(2-(4-chloro-3-methoxyphenyl)propan-2-yl)-1-(4-fluorophenyl)-1H-imidazol-2-ylthio)methyl)-5-fluoro-N-methylphenylsulfonamido)-N,N,N-trimethylpropan-1-aminium 2,2,2-trifluoroacetate]
< 100 | < 100 | COc1cc(C(C)(C)c2cnc(SCc3c(F)cc(S(=O)(=O)N(C)CCC[N+](C)(C)C)cc3Cl)n2-c2ccc(F)cc2)ccc1F [Compound 12d, 3-(3-chloro-5-fluoro-4-((5-(2-(4-fluoro-3-methoxyphenyl)propan-2-yl)-1-(4-fluorophenyl)-1H-imidazol-2-ylthio)methyl)-N-methylphenylsulfonamido)-N,N,N-trimethylpropan-1-aminium 2,2,2-trifluoroacetate]
< 100 | < 100 | COc1cc(C(C)(C)c2cnc(COc3c(F)cc(S(=O)(=O)N(C)CCC[N+](C)(C)C)cc3Cl)n2-c2ccc(F)cc2)ccc1Cl [Compound 12e, 3-(3-Chloro-4-((5-(2-(4-chloro-3-methoxyphenyl)propan-2-yl)-1-(4-fluorophenyl)-1H-imidazol-2-yl)methoxy)-5-fluoro-N-methylphenylsulfonamido)-N,N,N-trimethylpropan-1-aminium 2,2,2-trifluoroacetate]
< 100 | < 100 | COc1cc(C(C)(C)c2cnc(SCc3c(F)cc(S(=O)(=O)N(CCO)CCC[N+](C)(C)C)cc3F)n2-c2ccc(F)cc2)ccc1Cl [Compound 12f, 3-(4-((5-(2-(4-Chloro-3-methoxyphenyl)propan-2-yl)-1-(4-fluorophenyl)-1H-imidazol-2-ylthio)methyl)-3,5-difluoro-N-(2-hydroxyethyl)phenylsulfonamido)-N,N,N-trimethylpropan-1-aminium 2,2,2-trifluoroacetate]
< 100 | < 100 | COc1cc(C(C)(C)c2cnc(SCc3c(F)cc(S(=O)(=O)N(CCCO)CCC[N+](C)(C)C)cc3F)n2-c2ccc(F)cc2)ccc1Cl [Compound 12g, 3-(4-((5-(2-(4-chloro-3-methoxyphenyl)propan-2-yl)-1-(4-fluorophenyl)-1H-imidazol-2-ylthio)methyl)-3,5-difluoro-N-(3-hydroxypropyl)phenylsulfonamido)-N,N,N-trimethylpropan-1-aminium 2,2,2-trifluoroacetate]

Reference: US8846739B2, “TGR5 agonists” (Exelixis Patent Company LLC, priority 2009, dated 2014)
